# Laboratory results from publication PMC11606603, “The membrane domains of mammalian adenylyl cyclases are lipid receptors” (eLife, 2024).
# “And” between values parts separate entries of the source, which are not always exact repeats. Identical values can stand only once. “Also recorded” adds a separate entry of the source.
# What was measured:
# Type in all cases: biochemical
# mAC1 = biological target: T1, mAC1 (Homo sapiens, UniProt Q08828); assay: AC assay, Gsα-stimulated mAC1 in membranes from transfected HEK293 cells; conditions: 20 µM; in words
# T1 construct: Human mAC genes were from GenScript and fitted with a C-terminal FLAG-tag; FLAG (C); made in house; host or cells: HEK293, permanently transfected; membrane preparation
# Outline: (§1)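 cAMP detected with a Cisbio kit, calibrated by a cAMP standard curve each run. Reaction: 1 mM ATP, 2 mM MgCl2, 3 mM creatine phosphate, 60 μg/ml creatine kinase, 50 mM MOPS pH 7.5. Enzyme source: membranes of stably transfected HEK293 (G418-selected) carrying FLAG-tagged human AC.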
# mAC3 = biological target: T2, mAC3 (Homo sapiens, UniProt O60266); assay: AC assay, Gsα-stimulated mAC3 in membranes from transfected HEK293 cells; design: ATP/V (mAC3 + 20µM Oleic acid): unit not given here; conditions: for ATP/V (mAC3 + 20µM Oleic acid): Hanes-Woolf plot; for mAC3 activity + 20µM Oleic acid: Michaelis-Menten; for mAC3 activity [%] (100% = 300nM Gsα stimulation): individual experiments
# T2 construct: Human mAC genes were from GenScript and fitted with a C-terminal FLAG-tag; FLAG (C); made in house; host or cells: HEK293, permanently transfected; membrane preparation
# T2 sequence (O60266 whole entry): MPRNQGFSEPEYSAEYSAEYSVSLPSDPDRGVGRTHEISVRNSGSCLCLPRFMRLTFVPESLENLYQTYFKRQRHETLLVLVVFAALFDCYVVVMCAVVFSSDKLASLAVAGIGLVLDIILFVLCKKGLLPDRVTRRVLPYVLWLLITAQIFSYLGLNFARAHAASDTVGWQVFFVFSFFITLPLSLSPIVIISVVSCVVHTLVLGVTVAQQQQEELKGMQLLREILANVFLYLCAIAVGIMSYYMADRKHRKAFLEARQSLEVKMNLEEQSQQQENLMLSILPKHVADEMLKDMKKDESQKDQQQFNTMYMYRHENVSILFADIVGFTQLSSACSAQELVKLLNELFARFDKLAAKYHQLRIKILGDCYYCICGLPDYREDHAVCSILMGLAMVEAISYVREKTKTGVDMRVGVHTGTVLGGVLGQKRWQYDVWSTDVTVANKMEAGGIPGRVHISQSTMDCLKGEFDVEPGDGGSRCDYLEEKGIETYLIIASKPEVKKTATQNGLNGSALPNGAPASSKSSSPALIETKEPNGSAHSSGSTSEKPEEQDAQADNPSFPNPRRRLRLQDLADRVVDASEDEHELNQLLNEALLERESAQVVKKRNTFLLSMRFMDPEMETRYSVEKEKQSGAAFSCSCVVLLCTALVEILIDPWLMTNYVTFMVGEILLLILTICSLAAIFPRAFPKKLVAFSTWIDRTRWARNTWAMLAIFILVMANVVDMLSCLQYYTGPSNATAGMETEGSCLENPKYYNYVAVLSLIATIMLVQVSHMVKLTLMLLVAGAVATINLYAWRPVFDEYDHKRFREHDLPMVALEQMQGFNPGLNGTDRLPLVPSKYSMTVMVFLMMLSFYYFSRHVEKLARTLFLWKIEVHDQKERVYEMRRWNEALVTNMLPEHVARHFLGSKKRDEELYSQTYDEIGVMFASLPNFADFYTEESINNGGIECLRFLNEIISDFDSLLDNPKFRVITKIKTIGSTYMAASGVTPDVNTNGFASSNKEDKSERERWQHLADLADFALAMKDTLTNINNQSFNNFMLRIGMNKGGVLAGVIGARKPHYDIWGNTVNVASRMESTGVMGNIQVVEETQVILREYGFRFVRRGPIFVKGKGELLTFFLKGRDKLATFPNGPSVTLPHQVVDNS
# T2 sequence (P63092 whole entry Q227L partner): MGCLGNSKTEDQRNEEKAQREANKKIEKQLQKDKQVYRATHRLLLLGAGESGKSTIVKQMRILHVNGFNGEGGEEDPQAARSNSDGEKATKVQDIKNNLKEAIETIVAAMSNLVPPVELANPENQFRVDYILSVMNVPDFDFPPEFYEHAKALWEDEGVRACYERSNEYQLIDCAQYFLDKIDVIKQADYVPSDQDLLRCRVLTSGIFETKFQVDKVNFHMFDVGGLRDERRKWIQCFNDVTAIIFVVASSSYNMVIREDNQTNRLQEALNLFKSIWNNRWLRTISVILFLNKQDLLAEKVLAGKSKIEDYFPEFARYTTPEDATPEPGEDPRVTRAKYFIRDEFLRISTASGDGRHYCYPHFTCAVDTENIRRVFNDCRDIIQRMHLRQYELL
# Outline: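 cAMP formation was quantified by HTRF against a cAMP standard curve, with EC50 or IC50 derived by curve fitting. Reactions contained 1 mM ATP, 2 mM MgCl2, 3 mM creatine phosphate, 60 μg/ml creatine kinase and 50 mM MOPS pH 7.5, using membranes of stably transfected HEK293 cells carrying FLAG-tagged human AC.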
# mAC4 = biological target: T3, mAC4 (Homo sapiens, UniProt Q8NFM4); assay: AC assay, Gsα-stimulated mAC4 in membranes from transfected HEK293 cells
# T3 construct: Human mAC genes were from GenScript and fitted with a C-terminal FLAG-tag; FLAG (C); made in house; host or cells: HEK293, permanently transfected; membrane preparation
# T3 sequence (Q8NFM4 1-1077): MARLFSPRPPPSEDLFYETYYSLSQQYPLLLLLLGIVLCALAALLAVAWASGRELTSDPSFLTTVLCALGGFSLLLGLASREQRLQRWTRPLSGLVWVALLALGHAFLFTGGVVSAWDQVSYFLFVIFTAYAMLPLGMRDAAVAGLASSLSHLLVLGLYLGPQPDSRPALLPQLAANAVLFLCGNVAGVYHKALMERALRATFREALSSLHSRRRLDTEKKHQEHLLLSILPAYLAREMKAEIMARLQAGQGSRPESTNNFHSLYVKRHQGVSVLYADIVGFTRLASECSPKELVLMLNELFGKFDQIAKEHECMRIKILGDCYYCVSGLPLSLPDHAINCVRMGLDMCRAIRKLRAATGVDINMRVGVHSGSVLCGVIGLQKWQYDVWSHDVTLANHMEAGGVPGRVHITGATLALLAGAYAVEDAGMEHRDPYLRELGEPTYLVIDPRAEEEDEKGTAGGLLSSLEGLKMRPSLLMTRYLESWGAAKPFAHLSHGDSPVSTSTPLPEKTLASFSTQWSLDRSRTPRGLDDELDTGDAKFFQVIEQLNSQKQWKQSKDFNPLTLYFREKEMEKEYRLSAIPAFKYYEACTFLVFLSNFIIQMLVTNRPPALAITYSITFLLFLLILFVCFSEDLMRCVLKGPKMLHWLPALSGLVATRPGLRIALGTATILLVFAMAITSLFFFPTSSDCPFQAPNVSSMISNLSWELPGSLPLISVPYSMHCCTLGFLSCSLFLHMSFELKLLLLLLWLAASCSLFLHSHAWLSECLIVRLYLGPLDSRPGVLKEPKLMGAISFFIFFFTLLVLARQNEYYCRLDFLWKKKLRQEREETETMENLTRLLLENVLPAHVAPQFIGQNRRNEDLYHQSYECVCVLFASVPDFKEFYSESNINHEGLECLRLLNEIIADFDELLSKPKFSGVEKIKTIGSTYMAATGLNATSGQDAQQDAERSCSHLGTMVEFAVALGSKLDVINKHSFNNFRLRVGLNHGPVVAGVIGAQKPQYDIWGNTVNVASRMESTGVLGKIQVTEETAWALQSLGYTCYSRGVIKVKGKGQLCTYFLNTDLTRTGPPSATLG
# Outline: as §1
# mAC5 = biological target: T4, mAC5 (Homo sapiens, UniProt O95622); assay: AC assay, Gsα-stimulated mAC5 in membranes from transfected HEK293 cells
# T4 construct: Human mAC genes were from GenScript and fitted with a C-terminal FLAG-tag; FLAG (C); made in house; host or cells: HEK293, permanently transfected; membrane preparation
# T4 sequence (O95622 whole entry): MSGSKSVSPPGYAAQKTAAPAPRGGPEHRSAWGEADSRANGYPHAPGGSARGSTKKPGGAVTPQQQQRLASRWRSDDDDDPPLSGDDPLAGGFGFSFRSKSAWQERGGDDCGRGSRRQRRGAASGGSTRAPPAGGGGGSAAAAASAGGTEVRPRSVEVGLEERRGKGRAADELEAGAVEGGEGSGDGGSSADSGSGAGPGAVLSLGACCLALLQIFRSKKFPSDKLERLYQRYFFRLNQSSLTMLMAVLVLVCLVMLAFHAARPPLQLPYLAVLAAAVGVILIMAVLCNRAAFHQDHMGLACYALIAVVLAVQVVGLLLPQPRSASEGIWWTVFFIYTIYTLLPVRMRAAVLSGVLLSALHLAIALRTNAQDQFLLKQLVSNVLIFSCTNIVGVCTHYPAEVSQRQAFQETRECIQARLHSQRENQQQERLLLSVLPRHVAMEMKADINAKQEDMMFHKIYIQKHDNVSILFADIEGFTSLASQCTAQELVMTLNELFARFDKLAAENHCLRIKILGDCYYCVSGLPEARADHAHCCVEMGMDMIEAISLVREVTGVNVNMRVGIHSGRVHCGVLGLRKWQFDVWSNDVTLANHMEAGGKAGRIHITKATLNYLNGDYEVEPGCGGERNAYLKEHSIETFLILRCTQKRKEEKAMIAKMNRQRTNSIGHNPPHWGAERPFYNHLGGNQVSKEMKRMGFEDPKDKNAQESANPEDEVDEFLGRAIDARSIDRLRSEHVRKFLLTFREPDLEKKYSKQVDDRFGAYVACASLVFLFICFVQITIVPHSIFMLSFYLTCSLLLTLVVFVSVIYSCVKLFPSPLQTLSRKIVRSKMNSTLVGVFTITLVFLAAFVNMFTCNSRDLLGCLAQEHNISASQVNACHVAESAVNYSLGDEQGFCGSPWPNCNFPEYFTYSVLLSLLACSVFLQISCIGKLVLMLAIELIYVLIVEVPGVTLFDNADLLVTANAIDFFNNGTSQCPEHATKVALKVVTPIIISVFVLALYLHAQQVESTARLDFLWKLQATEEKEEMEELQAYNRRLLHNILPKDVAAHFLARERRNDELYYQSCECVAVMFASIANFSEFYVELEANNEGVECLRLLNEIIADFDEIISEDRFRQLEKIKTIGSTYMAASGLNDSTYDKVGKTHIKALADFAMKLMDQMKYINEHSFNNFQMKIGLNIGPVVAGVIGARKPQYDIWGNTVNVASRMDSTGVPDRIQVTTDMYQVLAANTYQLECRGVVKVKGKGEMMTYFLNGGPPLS
# Outline: as §1
# mAC8 = biological target: T5, mAC8 (Homo sapiens, UniProt P40145); assay: AC assay, Gsα-stimulated mAC8 in membranes from transfected HEK293 cells
# T5 construct: Human mAC genes were from GenScript and fitted with a C-terminal FLAG-tag; FLAG (C); made in house; host or cells: HEK293, permanently transfected; membrane preparation
# T5 sequence (P40145 whole entry): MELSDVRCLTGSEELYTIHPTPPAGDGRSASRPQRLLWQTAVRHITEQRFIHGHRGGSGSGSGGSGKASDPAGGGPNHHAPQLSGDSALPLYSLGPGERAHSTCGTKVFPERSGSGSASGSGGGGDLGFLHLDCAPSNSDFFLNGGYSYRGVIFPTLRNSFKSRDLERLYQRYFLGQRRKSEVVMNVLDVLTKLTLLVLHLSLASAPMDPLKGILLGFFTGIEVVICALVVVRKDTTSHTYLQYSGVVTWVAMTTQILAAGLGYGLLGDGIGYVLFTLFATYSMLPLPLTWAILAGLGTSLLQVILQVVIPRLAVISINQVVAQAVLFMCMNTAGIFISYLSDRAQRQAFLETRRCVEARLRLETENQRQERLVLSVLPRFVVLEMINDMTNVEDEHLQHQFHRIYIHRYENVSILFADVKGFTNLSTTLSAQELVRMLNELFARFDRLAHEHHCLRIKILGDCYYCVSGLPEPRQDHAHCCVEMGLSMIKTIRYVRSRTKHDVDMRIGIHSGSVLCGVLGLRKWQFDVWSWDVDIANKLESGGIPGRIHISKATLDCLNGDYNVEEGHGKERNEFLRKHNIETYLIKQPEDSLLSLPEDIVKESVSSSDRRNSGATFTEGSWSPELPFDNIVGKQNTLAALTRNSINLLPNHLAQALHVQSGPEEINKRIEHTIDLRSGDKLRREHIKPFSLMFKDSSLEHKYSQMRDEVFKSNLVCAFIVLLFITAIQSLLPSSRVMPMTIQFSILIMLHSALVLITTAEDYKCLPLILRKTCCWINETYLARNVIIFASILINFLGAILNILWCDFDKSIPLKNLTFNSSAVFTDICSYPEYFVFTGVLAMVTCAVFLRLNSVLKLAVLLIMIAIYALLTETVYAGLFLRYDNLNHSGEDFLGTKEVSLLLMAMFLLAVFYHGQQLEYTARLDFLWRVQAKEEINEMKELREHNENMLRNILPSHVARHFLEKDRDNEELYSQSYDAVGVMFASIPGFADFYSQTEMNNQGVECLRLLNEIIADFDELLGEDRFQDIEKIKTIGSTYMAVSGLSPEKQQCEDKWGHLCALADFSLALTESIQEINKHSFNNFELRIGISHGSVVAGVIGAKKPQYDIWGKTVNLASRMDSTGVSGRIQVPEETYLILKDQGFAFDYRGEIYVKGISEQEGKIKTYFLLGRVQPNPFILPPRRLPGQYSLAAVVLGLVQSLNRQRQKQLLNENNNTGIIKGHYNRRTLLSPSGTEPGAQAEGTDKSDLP
# Outline: as §1
# [1] = Figure 5 A, 20 µM oleic acid, 300 nM Gsα
smiles,measurement,setting,value
"CCCCCCCC/C=C\CCCCCCCC(=O)O [Oleic acid, Oleic ((9Z)-octadecenoic) acid]",Effect of lipid on 300 nM Gsα-stimulated mAC1,mAC1,slightly attenuated
same,time over which the action on mAC3 was linear,"mAC3; 300 nM Gsα + 20 µM oleic acid, 37°C",> 25 min
same,"enhancement of cAMP formation, mAC3","mAC3; 20 µM oleic, over the Gsα concentration range tested",about 3.4 fold
same,Effect of lipid on 300 nM Gsα-stimulated mAC3,"mAC3; 20 µM, in words",threefold
same,"activity, mAC3 + 20µM Oleic acid",mAC3; Gsα 100 nM,0.209 cAMP nmol/mg/min and 0.110 cAMP nmol/mg/min and 0.112 cAMP nmol/mg/min
same,"activity, mAC3 + 20µM Oleic acid",mAC3; Gsα 300 nM,0.432 cAMP nmol/mg/min and 0.605 cAMP nmol/mg/min and 0.596 cAMP nmol/mg/min
same,"activity, mAC3 + 20µM Oleic acid",mAC3; Gsα 450 nM,0.779 cAMP nmol/mg/min and 1.182 cAMP nmol/mg/min and 0.727 cAMP nmol/mg/min
same,"activity, mAC3 + 20µM Oleic acid",mAC3; Gsα 600 nM,0.825 cAMP nmol/mg/min and 1.078 cAMP nmol/mg/min and 1.302 cAMP nmol/mg/min
same,"activity, mAC3 + 20µM Oleic acid",mAC3; Gsα 800 nM,1.075 cAMP nmol/mg/min and 1.164 cAMP nmol/mg/min and 1.303 cAMP nmol/mg/min
same,"activity, mAC3 + 20µM Oleic acid",mAC3; Gsα 1000 nM,1.029 cAMP nmol/mg/min and 1.444 cAMP nmol/mg/min and 1.731 cAMP nmol/mg/min
same,ATP/V (mAC3 + 20µM Oleic acid),mAC3; ATP 50 µM,208.8
same,ATP/V (mAC3 + 20µM Oleic acid),mAC3; ATP 75 µM,204.9
same,ATP/V (mAC3 + 20µM Oleic acid),mAC3; ATP 250 µM,392.9
same,ATP/V (mAC3 + 20µM Oleic acid),mAC3; ATP 500 µM,636.9
same,ATP/V (mAC3 + 20µM Oleic acid),mAC3; ATP 750 µM,814.6
same,ATP/V (mAC3 + 20µM Oleic acid),mAC3; ATP 1000 µM,941.6
same,mAC3 activity + 20µM Oleic acid,mAC3; ATP 50 µM,0.232 nmol cAMP/mg/min and 0.247 nmol cAMP/mg/min
same,mAC3 activity + 20µM Oleic acid,mAC3; ATP 75 µM,0.434 nmol cAMP/mg/min and 0.298 nmol cAMP/mg/min
same,mAC3 activity + 20µM Oleic acid,mAC3; ATP 250 µM,0.713 nmol cAMP/mg/min and 0.609 nmol cAMP/mg/min and 0.587 nmol cAMP/mg/min
same,mAC3 activity + 20µM Oleic acid,mAC3; ATP 500 µM,0.786 nmol cAMP/mg/min and 0.782 nmol cAMP/mg/min and 0.787 nmol cAMP/mg/min
same,mAC3 activity + 20µM Oleic acid,mAC3; ATP 750 µM,0.817 nmol cAMP/mg/min and 0.753 nmol cAMP/mg/min and 1.192 nmol cAMP/mg/min
same,mAC3 activity + 20µM Oleic acid,mAC3; ATP 1000 µM,0.944 nmol cAMP/mg/min and 1.156 nmol cAMP/mg/min and 1.086 nmol cAMP/mg/min
same,EC50,mAC3; enhancement of 300 nM Gsα-stimulated activity,10.4 µM
same,mAC3 activity [%] (100% = 300nM Gsα stimulation),mAC3; fatty acid 0.5 µM,100%
same,mAC3 activity [%] (100% = 300nM Gsα stimulation),mAC3; fatty acid 1 µM,112% and 105% and 91% and 64% and 97% and 107% and 78% and 95% and 111% and 139% and 103% and 106% and 87%
same,mAC3 activity [%] (100% = 300nM Gsα stimulation),mAC3; fatty acid 3 µM,98% and 158% and 97% and 183% and 141% and 160% and 142% and 105% and 145% and 150%
same,mAC3 activity [%] (100% = 300nM Gsα stimulation),mAC3; fatty acid 6 µM,117% and 105% and 165% and 187% and 143% and 169% (2×) and 166% and 97%
same,mAC3 activity [%] (100% = 300nM Gsα stimulation),mAC3; fatty acid 10 µM,271% and 106% and 156% and 151% and 142% and 280% and 178% and 252% and 181% and 191% and 139% and 175% and 284% and 260% and 266% and 166%
same,mAC3 activity [%] (100% = 300nM Gsα stimulation),mAC3; fatty acid 20 µM,341% and 348% and 429% and 323% and 430% and 264% and 322% and 395% and 181% and 452% and 464% and 265% (2×)
same,mAC3 activity [%] (100% = 300nM Gsα stimulation),"mAC3; fatty acid 20 µM, listed as Oleic",298% and 532% and 253% and 428% and 297%
same,mAC3 activity; stimulated by 300nM Gsα + 20µM Oleic acid,"mAC3; time 3 min, 37°C",2.601 cAMP nmol/mg and 2.019 cAMP nmol/mg
same,mAC3 activity; stimulated by 300nM Gsα + 20µM Oleic acid,"mAC3; time 6 min, 37°C",2.734 cAMP nmol/mg and 2.75 cAMP nmol/mg
same,mAC3 activity; stimulated by 300nM Gsα + 20µM Oleic acid,"mAC3; time 10 min, 37°C",3.46 cAMP nmol/mg
same,mAC3 activity; stimulated by 300nM Gsα + 20µM Oleic acid,"mAC3; time 15 min, 37°C",4.543 cAMP nmol/mg and 5.759 cAMP nmol/mg
same,mAC3 activity; stimulated by 300nM Gsα + 20µM Oleic acid,"mAC3; time 20 min, 37°C",6.22 cAMP nmol/mg and 8.564 cAMP nmol/mg
same,mAC3 activity; stimulated by 300nM Gsα + 20µM Oleic acid,"mAC3; time 25 min, 37°C",9.573 cAMP nmol/mg and 11.033 cAMP nmol/mg
same,"Vmax, mAC3",mAC3; with 20 µM oleic acid,1.23 nmol cAMP•mg^−1•min^−1
same,mAC4 activity [%] (100% = 300nM Gsα stimulation); 20µM fatty acid concentration,"mAC4; 20 µM fatty acid, 300 nM Gsα, single experiments",100% and 72% and 120% and 92%
same,Effect of lipid on 300 nM Gsα-stimulated mAC4,"mAC4; 20 µM, in words",unaffected
same,"mAC activity [%] (100% = 300nM Gsα stimulation); 20µM Oleic acid concentration, mAC4",mAC4; [1],72% and 92% and 64% and 100%
same,mAC5 activity [%] (100% = 300nM Gsα stimulation),mAC5; 20µM fatty acid concentration,93% and 117% and 135% and 138%
same,Effect of lipid on Gsα-stimulated mAC5,"mAC5; 20 µM, in words",not enhanced; also recorded: unaffected
same,"mAC activity [%] (100% = 300nM Gsα stimulation); 20µM Oleic acid concentration, mAC5",mAC5; [1],135% and 138% and 161% and 84% and 105% and 93% and 117%
same,"activity, mAC5 + 20µM Oleic acid",mAC5; Gsα 30 nM,0.080 cAMP nmol/mg/min
same,"activity, mAC5 + 20µM Oleic acid",mAC5; Gsα 60 nM,0.233 cAMP nmol/mg/min and 0.334 cAMP nmol/mg/min
same,"activity, mAC5 + 20µM Oleic acid",mAC5; Gsα 100 nM,0.353 cAMP nmol/mg/min and 0.362 cAMP nmol/mg/min
same,"activity, mAC5 + 20µM Oleic acid",mAC5; Gsα 300 nM,0.752 cAMP nmol/mg/min and 1.165 cAMP nmol/mg/min
same,"activity, mAC5 + 20µM Oleic acid",mAC5; Gsα 450 nM,1.160 cAMP nmol/mg/min and 1.405 cAMP nmol/mg/min
same,"activity, mAC5 + 20µM Oleic acid",mAC5; Gsα 600 nM,1.213 cAMP nmol/mg/min and 1.684 cAMP nmol/mg/min
same,"activity, mAC5 + 20µM Oleic acid",mAC5; Gsα 800 nM,1.245 cAMP nmol/mg/min and 1.702 cAMP nmol/mg/min
same,"activity, mAC5 + 20µM Oleic acid",mAC5; Gsα 1000 nM,1.415 cAMP nmol/mg/min and 1.818 cAMP nmol/mg/min
same,mAC5 activity [%] (100% = 300nM Gsα stimulation),"mAC5; fatty acid 1 µM, individual experiments",126% and 196% and 115% and 78% and 64%
same,mAC5 activity [%] (100% = 300nM Gsα stimulation),"mAC5; fatty acid 3 µM, individual experiments",142% and 91% and 87%
same,mAC5 activity [%] (100% = 300nM Gsα stimulation),"mAC5; fatty acid 6 µM, individual experiments",146% and 127% and 77% and 90%
same,mAC5 activity [%] (100% = 300nM Gsα stimulation),"mAC5; fatty acid 10 µM, individual experiments",126% and 140% and 134% and 93%
same,mAC5 activity [%] (100% = 300nM Gsα stimulation),"mAC5; fatty acid 20 µM, individual experiments",93% and 117% and 135% and 138%
same,activity [%] (100% = 300nM Gsα stimulation),"mAC5; mAC5, 20µM Oleic acid concentration, Figure 9 C",161% and 84% and 93% and 117% and 135% and 138%
same,mAC8 activity [%] (100% = 300nM Gsα stimulation),mAC8; 20µM fatty acid concentration,134% and 139%
same,Effect of lipid on 300 nM Gsα-stimulated mAC8,"mAC8; 20 µM, in words",unaffected
same,"mAC activity [%] (100% = 300nM Gsα stimulation); 20µM Oleic acid concentration, mAC8",mAC8; [1],134% and 139%
